Values of other authors as cited in patent publication US8986714B2, “Formulations, methods and procedures for reducing or preventing the development, or the risk of development, of neuropathology as a result of trauma” (Sapna Life Sciences Corporation, priority 2013, dated 2015).

Assays:
[1] = system: cat spinal dorsal horn neurons; conditions: noxious cutaneous stimulation and substance P
[2] = system: rat model of neuropathic pain
migraine attacks = conditions: human, in vivo
[3] = system: chemotherapy-induced nausea and vomiting; conditions: in conjunction with another antiemetic drug
[4] = system: chronic post-surgical pain; conditions: perioperative administration; at two months or more after various types of surgery
[5] = system: immature mouse brain ischemia; conditions: treatment of acute seizures; measured four weeks later
postherpetic neuralgia = conditions: combined with valacyclovir; six months later
spinal cord compression = conditions: in vivo
spinal cord ischemia = conditions: rabbits
[6] = system: chronic spinal cord injury; conditions: stable chronic spinal cord injury patients
[7] = system: amyotrophic lateral sclerosis
[8] = system: chronic spinal cord injury; conditions: chronic spinal cord injury patients, first two weeks
[9] = system: partial sciatic nerve ligation; conditions: compared to controls
[10] = system: peripheral nerve crush injury; conditions: facial nerve and sciatic nerve injury models
traumatic brain injury = conditions: approximately 80 patients treated within eight hours after traumatic brain injury

COc1ccccc1CN[C@H]1C2CCN(CC2)[C@H]1C(c1ccccc1)c1ccccc1 [CP-96,345]
responses of spinal dorsal horn neurons [1]: blocks responses of cat spinal dorsal horn neurons to noxious cutaneous stimulation and to substance P | recovery from peripheral nerve injury ([2]; animal model): promotes the recovery from peripheral nerve injury

COc1ccccc1[C@H](C)C(=O)N1C[C@@H]2[C@H](C1)C(c1ccccc1)(c1ccccc1)CC[C@@]2(O)c1ccccc1OC [RPR100893]
treatment of migraine attacks (migraine attacks): not effective

C[C@@H](O[C@H]1OCCN(Cc2n[nH]c(=O)[nH]2)[C@H]1c1ccc(F)cc1)c1cc(C(F)(F)F)cc(C(F)(F)F)c1 [aprepitant]
acute effects on chemotherapy-induced nausea and vomiting [3]: proved to be effective when administered in conjunction with another antiemetic drug

NCC1(CC(=O)O)CCCCC1 [gabapentin]
incidence of chronic post-surgical pain [4]: reducing the incidence of chronic post-surgical pain | brain atrophy [5]: beneficial effects on brain atrophy | rate of postherpetic neuralgia (postherpetic neuralgia): reduced | outcomes of neuropathology, spinal cord compression (spinal cord compression): preventive effects | outcomes of neuropathology, spinal cord ischemia (spinal cord ischemia): preventive effects

O=C([O-])[O-].[Li+].[Li+] [lithium carbonate]
effect on neurological symptoms [6]: without effect on neurological symptoms | mortality ([7]; 22 patients, over 15 months): prevented death of 22 patients | motor deterioration ([7]; 22 patients, over 15 months): only minimal motor deterioration | plasma levels ([7]; daily oral doses): 400 to 800 µM | tolerability [8]: well tolerated over the first two weeks

[Cl-].[Li+] [lithium chloride]
nociceptive scores in response to tactile and thermal stimuli [9]: reduced the nociceptive scores | expression of myelin genes [10]: stimulate the expression of myelin genes | functional recovery [10]: accelerate functional recovery | myelin structure [10]: restore myelin structure

CC(=O)[C@H]1CC[C@H]2[C@@H]3CCC4=CC(=O)CC[C@]4(C)[C@H]3CC[C@]12C [progesterone]
development of symptoms of peripheral nerve injury ([2]; early administration, intraperitoneally): prevents the development of symptoms of peripheral nerve injury | tactile hypersensitivity, late treatment ([2]; given for 11 days, starting on day 20, versus control group): no difference between this experimental group and the control group | tactile hypersensitivity by 30 days ([2]; started one hour after model induction, daily for the subsequent 10 days): no tactile hypersensitivity | persistence of effect after treatment ended on day 10 ([2]; study period ended at day 85): persisted to the end of the study period | neurological outcomes (traumatic brain injury): improved neurological outcomes
